pIC50: −log10 of the molar value. Read-outs that look alike come from different tables or passages of the source.

The source of these data is article PMC5598323 (Toxicology Reports, 2015).

In one data set the target is CYP3A4 (Homo sapiens, UniProt P08684). The data set is described as follows: CYP3A4 testosterone 6β-hydroxylase assay in human liver microsomes. Format: in vitro ADME. The conditions noted are these: for IC50: IC50 values CYP3A4 (in μg/ml, in brackets), HLM, μM bound converted to μg/ml; for pIC50: IC50 values CYP3A4, HLM, testosterone 100 μM, tested 1–50 μM; for inhibition of CYP3A4 in HLM (in words): even upto 50 μM concentrations.

In another data set the target is CYP2D6 (Homo sapiens, UniProt P10635). Kind of data set: CYP2D6 dextromethorphan O-demethylation assay in human liver microsomes. Format: in vitro ADME. The conditions noted are these: for IC50: IC50 values CYP2D6 (in μg/ml, in brackets), HLM, μM bound converted to μg/ml; for pIC50: IC50 values CYP2D6, HLM, dextromethorphan 8 μM, tested 1–50 μM; for inhibition of CYP2D6 in HLM (in words): even upto 50 μM concentrations.

For a further data set, the target named is CYP2C9 (Homo sapiens, UniProt P11712). Kind of data set: CYP2C9 diclofenac 4′-hydroxylation assay in human liver microsomes. The conditions noted are these: for IC50: IC50 values CYP2C9 (in μg/ml, in brackets), HLM, μM bound converted to μg/ml; for pIC50: IC50 values CYP2C9, HLM, diclofenac 50 μM, tested 1–50 μM; for inhibition of CYP2C9 in HLM (in words): even upto 50 μM concentrations. In general terms: Liver microsomes are vesicles of endoplasmic reticulum, rich in cytochrome P450 enzymes.

Data set [1] has as its system CYP1A enzyme. As to conditions: human liver microsomes; cited from earlier work.
Data set [2] concerns CYP1A enzyme. As to conditions: rat liver microsomes; cited from earlier work.
For data set [3] the following is noted: stated in discussion, no experiment and reference not given, cited from earlier work.

Chain of CYP2C9 (P11712 whole entry): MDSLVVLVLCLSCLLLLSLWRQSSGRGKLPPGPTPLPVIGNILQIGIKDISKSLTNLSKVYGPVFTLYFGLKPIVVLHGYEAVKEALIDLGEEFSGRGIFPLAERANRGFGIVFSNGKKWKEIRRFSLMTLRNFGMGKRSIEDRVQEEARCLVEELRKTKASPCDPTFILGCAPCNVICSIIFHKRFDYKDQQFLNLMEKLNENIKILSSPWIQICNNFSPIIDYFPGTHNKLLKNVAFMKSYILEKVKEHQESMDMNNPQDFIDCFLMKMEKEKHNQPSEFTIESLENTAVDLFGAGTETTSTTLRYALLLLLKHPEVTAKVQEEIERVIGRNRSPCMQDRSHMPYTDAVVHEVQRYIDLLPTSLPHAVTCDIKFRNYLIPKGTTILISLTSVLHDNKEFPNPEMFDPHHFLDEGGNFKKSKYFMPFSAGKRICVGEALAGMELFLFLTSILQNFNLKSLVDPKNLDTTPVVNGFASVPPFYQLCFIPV
Chain of CYP3A4 (P08684 whole entry): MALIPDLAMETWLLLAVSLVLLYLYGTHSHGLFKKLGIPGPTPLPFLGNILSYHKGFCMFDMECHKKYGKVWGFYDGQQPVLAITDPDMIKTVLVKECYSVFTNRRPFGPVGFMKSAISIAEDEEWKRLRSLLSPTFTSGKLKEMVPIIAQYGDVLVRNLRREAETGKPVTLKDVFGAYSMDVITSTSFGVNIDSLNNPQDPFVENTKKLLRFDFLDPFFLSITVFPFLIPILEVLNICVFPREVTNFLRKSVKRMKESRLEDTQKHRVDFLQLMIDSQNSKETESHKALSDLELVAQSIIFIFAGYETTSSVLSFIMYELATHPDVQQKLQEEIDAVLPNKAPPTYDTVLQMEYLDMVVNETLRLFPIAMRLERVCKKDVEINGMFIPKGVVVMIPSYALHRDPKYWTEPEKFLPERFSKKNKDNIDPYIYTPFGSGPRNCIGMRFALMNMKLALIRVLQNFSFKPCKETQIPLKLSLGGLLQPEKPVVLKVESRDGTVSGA
Chain of CYP2D6 (P10635 whole entry): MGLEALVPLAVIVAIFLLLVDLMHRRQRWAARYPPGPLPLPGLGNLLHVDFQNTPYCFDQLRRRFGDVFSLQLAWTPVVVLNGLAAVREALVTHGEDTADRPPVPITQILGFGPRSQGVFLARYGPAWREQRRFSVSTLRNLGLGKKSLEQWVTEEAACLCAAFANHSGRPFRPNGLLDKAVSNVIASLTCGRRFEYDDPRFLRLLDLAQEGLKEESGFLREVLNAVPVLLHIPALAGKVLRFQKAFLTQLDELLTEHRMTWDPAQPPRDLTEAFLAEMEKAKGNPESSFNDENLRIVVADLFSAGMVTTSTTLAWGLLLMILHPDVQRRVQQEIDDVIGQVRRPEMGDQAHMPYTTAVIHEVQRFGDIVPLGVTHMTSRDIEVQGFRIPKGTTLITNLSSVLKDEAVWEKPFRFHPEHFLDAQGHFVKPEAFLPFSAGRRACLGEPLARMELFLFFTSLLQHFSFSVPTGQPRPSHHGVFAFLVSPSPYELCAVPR

What is called IC50 is the concentration that gives 50% inhibition. A lower IC50 goes with greater potency in that assay. For orientation: pIC50 means the negative decadic logarithm of the IC50, by convention in mol/L. In the case of `CC1(C)CC[C@]2(C(=O)O)CC[C@]3(C)C(=CC[C@@H]4[C@@]5(C)C[C@@H](O)[C@H](O)[C@@](C)(CO)[C@@H]5CC[C@]43C)[C@@H]2[C@@H]1O` [Arjungenin, arjungenin], on CYP3A4, the IC50 was greater than 49.5 µM, the pIC50 is less than 4.30 and the “inhibition of CYP3A4 in HLM (in words)” value is “no significant inhibition”. In addition, on CYP2D6, the IC50 was greater than 49.5 µM, the pIC50 was less than 4.30 and the “inhibition of CYP2D6 in HLM (in words)” value was “no significant inhibition”. Also, on CYP2C9, the IC50 was greater than 49.5 µM, the pIC50 is less than 4.30 and the “inhibition of CYP2C9 in HLM (in words)” value is “no significant inhibition”. The “inhibition of CYP1A enzyme (in words)” value in the data set with CYP1A enzyme [1] was “did not show inhibition”. The “inhibition of CYP1A enzyme (in words)” value with CYP1A enzyme [2] is given as “did not show inhibition”. Also, the solubility in hexane entry in data set [3] (hexane) is listed as “insoluble”. Also, the solubility in methanol entry in data set [3] is “freely soluble”.

On to `CC1(C)CC[C@]2(C(=O)O)CC[C@]3(C)C(=CC[C@@H]4[C@@]5(C)C[C@@H](O)[C@H](O)C(C)(C)[C@@H]5CC[C@]43C)[C@@H]2[C@@H]1O` [Arjunic acid], for which, on CYP3A4, the IC50 was greater than 51.2 µM, the negative logarithm of the IC50 (pIC50) is less than 4.30 and the “inhibition of CYP3A4 in HLM (in words)” value was “no significant inhibition”. Further, on CYP2D6, the half-inhibitory concentration (IC50) is greater than 51.2 µM, the pIC50 is less than 4.30 and the “inhibition of CYP2D6 in HLM (in words)” value is given as “no significant inhibition”. Also, at CYP2C9, the concentration for half-maximal inhibition (IC50) is greater than 51.2 µM, the pIC50 was less than 4.30 and the “inhibition of CYP2C9 in HLM (in words)” value is reported as “no significant inhibition”. Further, the “inhibition of CYP1A enzyme (in words)” value in the data set on CYP1A enzyme [1] is listed as “did not show inhibition”. The “inhibition of CYP1A enzyme (in words)” value in the data set on CYP1A enzyme [2] was “did not show inhibition”. In addition, the solubility in methanol result in data set [3] is listed as “freely soluble”. Besides, the solubility in water entry in data set [3] (water) is recorded as “insoluble”.
